Data published in PMC9403976, “Elucidating the path to Plasmodium prolyl-tRNA synthetase inhibitors that overcome halofuginone resistance” (Nature Communications, 2022).
Several values for one entry are separate records, joined by “and”; a condition that tells them apart may be missing. Identical values can stand only once. Like-named read-outs stand apart in the source and are kept apart here.

How the values were obtained:
HsProRS = HsProRS (Homo sapiens, UniProt P07814); experiment: TR-FRET ligand displacement assay with tracer MAT379 (CoraFluor-1-Halo and anti-His6 antibody formats); type: binding; set-up: made in house; host or cells: E. coli SoluBL-21; conditions: for normalized TR-FRET signal (dose-response replicates): SI Fig 15, listed as Glyburide (28)
P. falciparum Dd2-2D4 = experiment: P. falciparum asexual blood stage (ABS) growth assay, SYBR Green, 72 h, wild-type parasites; type: cell-based, Plasmodium falciparum; conditions: Plasmodium falciparum
[1] = test system: halofuginone-induced P. falciparum (elevated proline homeostasis); experiment: P. falciparum ABS growth assay, SYBR Green, 72 h, halofuginone-induced parasites; type: cell-based, Plasmodium falciparum; conditions: Plasmodium falciparum, DD2; halofuginone-induced ABS parasites, 72 h; read-out: Dd2 (EC50 [nM]) Halofuginone-induced
Source text: (§1) Parasites were maintained under standard culture conditions as described previously[56],[57]. […] The P. falciparum Dd2 cell lines used in this study (Dd2-2D4, halofuginone-induced, and HFGR-I) have previously undergone whole genome sequencing in our labs. They were also routinely assayed and EC50 values determined using the ABS growth assay (see below) with a panel of standard antimalarial compounds, including halofuginone which has differential activity for the three Dd2 lines used in these experiments. Data were cross-referenced for consistency with literature reported values and data previously acquired in the lab.
(§2) This assay was performed as previously described. In short, P. falciparum erythrocytic-stage parasites at 1% parasitemia and 1% hematocrit in RPMI + 0.5% Albumax were seeded at 40 μL/well in 384-well plates with test compounds in triplicate, dose-response format with 10 μM dihydroartemisinin as a kill-control and blank (no compound) wells as a growth-control. […] After 72 h, growth was quantified by measuring fluorescence (Molecular Devices SpectraMax iD5) following SYBR Green 1 staining. Data were analyzed in Excel and plotted in PRISM (V. 8.4.3–9.1.0, GraphPad).

PfcProRS = molecular target: T1, PfcProRS (Plasmodium falciparum, UniProt Q8I5R7); type: binding; conditions: for Normalized response, dose-response replicates (SI Fig 14): replicates 1-3, listed as Glyburide (28)
T1 construct: made in house; host or cells: E. coli SoluBL-21

[2] = test system: HFGR-I P. falciparum (elevated proline homeostasis and PfcProRS^L482H); experiment: P. falciparum ABS growth assay, SYBR Green, 72 h, HFGR-I parasites; type: cell-based, Plasmodium falciparum; conditions: Plasmodium falciparum, DD2; HFGR-I ABS parasites, 72 h; read-out: Dd2 (EC50 [nM]) HFGR-I
Source text: as §1, §2

T1 sequence (Q8I5R7 249-746): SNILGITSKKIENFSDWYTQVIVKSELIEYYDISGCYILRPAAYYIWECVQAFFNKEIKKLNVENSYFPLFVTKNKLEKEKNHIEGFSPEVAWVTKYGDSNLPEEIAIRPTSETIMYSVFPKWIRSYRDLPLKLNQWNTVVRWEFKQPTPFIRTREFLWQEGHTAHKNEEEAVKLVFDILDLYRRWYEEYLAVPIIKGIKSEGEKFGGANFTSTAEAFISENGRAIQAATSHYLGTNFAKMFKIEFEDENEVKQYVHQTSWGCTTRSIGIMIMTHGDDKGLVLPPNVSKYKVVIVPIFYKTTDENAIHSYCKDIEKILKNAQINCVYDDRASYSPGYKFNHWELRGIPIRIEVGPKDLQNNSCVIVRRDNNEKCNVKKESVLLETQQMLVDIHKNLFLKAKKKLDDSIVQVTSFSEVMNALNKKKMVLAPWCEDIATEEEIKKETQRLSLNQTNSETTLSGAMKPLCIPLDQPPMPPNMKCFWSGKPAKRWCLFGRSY
Sequence of HsProRS (P07814 996-1512): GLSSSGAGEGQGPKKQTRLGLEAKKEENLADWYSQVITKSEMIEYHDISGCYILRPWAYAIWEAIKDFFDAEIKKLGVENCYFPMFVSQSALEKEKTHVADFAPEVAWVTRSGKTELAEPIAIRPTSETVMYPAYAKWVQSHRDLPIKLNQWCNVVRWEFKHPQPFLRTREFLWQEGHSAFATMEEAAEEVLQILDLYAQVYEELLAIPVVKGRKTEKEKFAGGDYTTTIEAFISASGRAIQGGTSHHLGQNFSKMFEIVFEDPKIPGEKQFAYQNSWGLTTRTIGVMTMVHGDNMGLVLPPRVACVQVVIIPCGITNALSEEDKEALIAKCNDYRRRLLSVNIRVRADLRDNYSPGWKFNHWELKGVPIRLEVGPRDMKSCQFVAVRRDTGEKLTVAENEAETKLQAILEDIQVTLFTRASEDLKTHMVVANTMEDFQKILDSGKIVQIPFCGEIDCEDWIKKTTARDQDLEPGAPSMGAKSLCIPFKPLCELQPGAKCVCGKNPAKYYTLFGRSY

Question: How did the “HsProRS % signal at 100 μM, + 100 μM proline” value (HsProRS; + 100 μM proline, 100 μM) turn out when `COc1ccc(Cl)cc1C(=O)NCCc1ccc(S(=O)(=O)NC(=O)NC2CCCCC2)cc1` [Glyburide, reference compound] was run?
Answer: 92.6%

Question: And the Kd (HsProRS; HsProRS (KD [nM]) + ATP, 500 μM ATP, 250 nM MAT379)?
Answer: 30900 nM

Question: And the Kd (HsProRS; HsProRS (KD [nM]) + proline, 100 μM proline, 250 nM MAT379)?
Answer: > 50000 nM

Question: What about the Kd (HsProRS; HsProRS (KD [nM]) −, absence of substrates, 250 nM MAT379) of the same compound?
Answer: 73900 nM

Question: And the Kd (HsProRS; HsProRS KD + 100 μM proline, bound, + 100 μM proline, bound given in μM)?
Answer: > 50900 nM

Question: What about the “normalized TR-FRET signal (dose-response replicates)” value (“normalized TR-FRET signal” for short) (HsProRS; Log[inhibitor] (M) -3.99976) of the same compound?
Answer: 4.60E-01 and 4.45E-01 and 5.24E-01

Question: What about the “normalized TR-FRET signal” value (HsProRS; Log[inhibitor] (M) -4.3009) of the same compound?
Answer: 6.36E-01 and 5.89E-01 and 6.44E-01

Question: And the “normalized TR-FRET signal” value (HsProRS; Log[inhibitor] (M) -4.60199)?
Answer: 8.28E-01 and 7.19E-01 and 8.15E-01

Question: And the “normalized TR-FRET signal” value (HsProRS; Log[inhibitor] (M) -4.90248)?
Answer: 9.22E-01 and 9.13E-01 and 9.32E-01

Question: And the “normalized TR-FRET signal” value (HsProRS; Log[inhibitor] (M) -5.20323)?
Answer: 1.00E+00 and 9.33E-01 (2×)

Question: And the “normalized TR-FRET signal” value (HsProRS; Log[inhibitor] (M) -5.51347)?
Answer: 9.75E-01 (2×) and 1.00E+00

Question: And the “normalized TR-FRET signal” value (HsProRS; Log[inhibitor] (M) -5.79595)?
Answer: 7.95E-01 and 8.60E-01 and 9.98E-01

Question: And the “normalized TR-FRET signal” value (HsProRS; Log[inhibitor] (M) -6.10794)?
Answer: 8.65E-01 and 8.44E-01 and 8.55E-01

Question: And the “normalized TR-FRET signal” value (HsProRS; Log[inhibitor] (M) -6.40526)?
Answer: 9.62E-01 and 9.85E-01 and 1.00E+00

Question: What about the “normalized TR-FRET signal” value (HsProRS; Log[inhibitor] (M) -6.7137) of the same compound?
Answer: 9.69E-01 and 9.06E-01 and 9.96E-01

Question: And the “normalized TR-FRET signal” value (HsProRS; Log[inhibitor] (M) -7)?
Answer: 8.09E-01 and 8.06E-01 and 9.15E-01

Question: And the “normalized TR-FRET signal” value (HsProRS; Log[inhibitor] (M) -7.331)?
Answer: 8.96E-01 and 8.92E-01 and 9.69E-01

Question: What about the “normalized TR-FRET signal” value (HsProRS; Log[inhibitor] (M) -7.57403) of the same compound?
Answer: 9.06E-01 and 7.74E-01 and 8.73E-01

Question: And the “normalized TR-FRET signal” value (HsProRS; Log[inhibitor] (M) -7.87506)?
Answer: 6.90E-01 and 8.76E-01 and 8.40E-01

Question: And the “normalized TR-FRET signal” value (HsProRS; Log[inhibitor] (M) -8.17609)?
Answer: 9.01E-01 and 9.35E-01 and 9.12E-01

Question: What about the EC50 (P. falciparum Dd2-2D4; DD2, SI Fig 16b, values on -log scale, read-out: ABS - Dd2-2D4 (converted)) of the same compound?
Answer: 75700 nM

Question: And the EC50 (P. falciparum Dd2-2D4; wild-type Dd2-2D4 ABS parasites, 72 h, read-out: Dd2 (EC50 [nM]) wt)?
Answer: 75600 nM

Question: What about the EC50 [1] of the same compound?
Answer: 73600 nM

Question: What about the “binding mode with respect to substrates (ATP, proline)” value (PfcProRS) of the same compound?
Answer: ATP- and proline-competitive

Question: And the “selectivity for PfcProRS over HsProRS” value (PfcProRS)?
Answer: > 30 fold

Question: What about the “Normalized response, dose-response replicates (SI Fig 14)” value (“Normalized response” below) (PfcProRS; Log[inhibitor] (M) -4.000) of the same compound?
Answer: 9.02E-01 and 9.90E-01 and 8.86E-01

Question: And the “Normalized response” value (PfcProRS; Log[inhibitor] (M) -4.301)?
Answer: 1.05E+00 and 1.04E+00 and 1.16E+00

Question: What about the “Normalized response” value (PfcProRS; Log[inhibitor] (M) -4.601) of the same compound?
Answer: 1.10E+00 and 1.11E+00 and 1.09E+00

Question: And the “Normalized response” value (PfcProRS; Log[inhibitor] (M) -4.904)?
Answer: 1.18E+00 and 1.08E+00 and 1.07E+00

Question: What about the “Normalized response” value (PfcProRS; Log[inhibitor] (M) -5.208) of the same compound?
Answer: 9.30E-01 and 1.21E+00 and 1.10E+00

Question: And the “Normalized response” value (PfcProRS; Log[inhibitor] (M) -5.509)?
Answer: 1.06E+00 and 9.98E-01 and 1.05E+00

Question: And the “Normalized response” value (PfcProRS; Log[inhibitor] (M) -5.796)?
Answer: 9.95E-01 and 9.65E-01 and 1.02E+00

Question: What about the “Normalized response” value (PfcProRS; Log[inhibitor] (M) -6.108) of the same compound?
Answer: 9.29E-01 and 8.37E-01 and 1.06E+00

Question: What about the “Normalized response” value (PfcProRS; Log[inhibitor] (M) -6.409) of the same compound?
Answer: 9.49E-01 and 9.10E-01 and 8.70E-01

Question: What about the “Normalized response” value (PfcProRS; Log[inhibitor] (M) -6.710) of the same compound?
Answer: 9.85E-01 and 9.81E-01 and 9.34E-01

Question: What about the “Normalized response” value (PfcProRS; Log[inhibitor] (M) -7.000) of the same compound?
Answer: 1.05E+00 (2×) and 1.07E+00

Question: And the “Normalized response” value (PfcProRS; Log[inhibitor] (M) -7.301)?
Answer: 1.02E+00 and 9.36E-01 and 1.04E+00

Question: And the “Normalized response” value (PfcProRS; Log[inhibitor] (M) -7.602)?
Answer: 8.75E-01 and 9.05E-01 and 1.01E+00

Question: And the “Normalized response” value (PfcProRS; Log[inhibitor] (M) -8.000)?
Answer: 1.03E+00 and 1.08E+00 and 9.17E-01

Question: And the “Normalized response” value (PfcProRS; Log[inhibitor] (M) -8.301)?
Answer: 1.03E+00 and 8.92E-01 and 1.05E+00

Question: What about the EC50 [2] of the same compound?
Answer: 69600 nM
